Data from publication PMC5099944, “Design, synthesis and biological evaluation of hybrids of β-carboline and salicylic acid as potential anticancer and apoptosis inducing agents” (Scientific Reports, 2016).

Tests used:
[1] = system: SMMC-7721 cells; experiment: Flow cytometry assay of cell apoptosis (FITC-Annexin V/PI); format: cell-based, human; settings: 48 h
Description: To determine whether apoptosis is involved in the anti-proliferative effects of 8h, apoptosis assay was performed using SMMC-7721 cells. The cells were incubated with either vehicle alone, different concentrations of 8h (7.0 or 14 μM), or 14 μM 5-FU for 48 h, and then stained with FITC-Annexin V and propidium iodide (PI). The percentages of apoptotic SMMC-7721 cells were determined by flow cytometry analysis. In the vehicle group, the occurrence of SMMC-7721 cell apoptosis was minimal. […] Low concentration of 8h (7.0 μM) induced 46% SMMC-7721 cell apoptosis, while the higher dose (14 μM) of 8h induced 63% SMMC-7721 cell apoptosis.
Figure 4 Compound 8h induced SMMC-7721 cell apoptosis in vitro. SMMC-7721 cells were incubated with the indicated concentrations of 8h and 14 μM 5-FU for 48 h, and the cells were stained with FITC-Annexin V and PI, followed by flow cytometry analysis. (A) Flow cytometry analysis. (B) Quantitative analysis of apoptotic cells. Data are expressed as means ± SD of the percentages of apoptotic cells from three independent experiments. *P < 0.01 vs control.
SMMC-7721 cells were cultured overnight and incubated in triplicate with compound 8h (7.0 and 14 μM), 5-FU (14 μM), or vehicle for 48 h. The cells were harvested, and stained with FITC-Annexin V and PI (BioVision) at room temperature for 15 min. The percentage of apoptotic cells was determined by flow cytometry (Beckman Coulter) analysis.

[2] = system: H460 cells; experiment: MTT assay, proliferation of H460 cells; format: cell-based; settings: NCI-H460, 48 h, H460 human lung cancer cells, read-out: In vitro cytotoxicity (IC50) H460
Description: The in vitro antitumor activities of the synthesized compounds 7a-l and 8a-l against five human cancer cells were evaluated in MTT assays using 5-fluorouracil (5-FU) and harmine as positive controls. These cells are human hepatocellular carcinoma cells (SMMC-7721 and Hep G2), human colon cancer cell lines (HCT116), human bladder carcinoma cells (EJ), and human lung cancer cells (H460).
Hepatocellular carcinoma cells (SMMC-7721 and Hep G2), Human colon cancer cell lines (HCT116), human bladder carcinoma cells (EJ) or human lung cancer cells (H460) at 10^4 cells per well were cultured in 10% FBS DMEM in 96-well flat-bottom microplates overnight. The cells were incubated in triplicate with, or without, different concentrations of each test compound for 48 h. During the last 4 h incubation, 30 μL of tetrazolium dye (MTT) solution (5 mg mL^−1) was added to each well. The resulting MTT-formazan crystals were dissolved in 150 μL DMSO, and absorbance was measured spectrophotometrically at 570 nm using an ELISA plate reader. The inhibition induced by each test compound at the indicated concentrations was expressed as a percentage. The concentration required for 50% inhibition (IC50) was calculated using the software (GraphPadPrism Version 4.03).

## Cc1nc(C(=O)NCCCCCNC(=O)c2ccccc2O)cc2c1[nH]c1ccccc12 [8h, N-(5-(2-Hydroxybenzamido)pentyl)-1-methyl-9H-pyrido[3,4-b]indole-3-carboxamide]
[1]; 7.0 μM
  SMMC-7721 cell apoptosis (percentage of apoptotic cells): 46%
[1]; 14 μM
  SMMC-7721 cell apoptosis (percentage of apoptotic cells): 63%
[2]
  IC50: 13.1 µM
